The results in this text go back to patent US20250049740A1, “COMPOUND AND USE THEREOF IN PREPARATION OF MEDICAMENT FOR TREATING ALZHEIMER'S DISEASE” (priority 2024, published 2025).

Holding throughout (assay type): in vivo, mouse
Experiment [1] relates to wild-type mice C57BL/6J. Description: Y maze test, wild-type mice given OLDA / OLDA plus formula I. How it is done: (§1) 6-week-old female wild-type mice C57BL/6J were divided into a control group injected with normal saline (Ctrl), a diseased group (injected with OLDA), and a treatment group (Formula I-OLDA). The administration was carried out by intraperitoneal injection, and the diseased group (OLDA, 0.5 mg/kg to 1.5 mg/kg), the control group (injected with normal saline, the volume of which was equal to that in the diseased group), and the treatment group (0.5 mg/kg to 1.5 mg/kg of OLDA, and 0.5 mg/kg to 1.5 mg/kg of formula I, prepared into a mixed solution for administration) were all administered once a day by injection for 8 consecutive weeks. After administration, the learning and memory ability of the mice in each group was evaluated by Y maze and Morris water maze tests.

Experiment [2] relates to Aβ and p-Tau181. Description: IHC of AD-related biochemical markers in brain tissue (hippocampus), wild-type mice. As to the method:
as §1
(§2) According to the standard operating procedure of mouse brain anatomy, the mice in the control group, diseased group and treatment group in Example 3 were sacrificed, and their brain tissues and colon tissues were collected respectively and cryopreserved at −80° C.
(§3) The brain tissues of the mice in the diseased group and control group in Example 4 were examined by IHC technology for AD-related biochemical markers, and examined by IHC technology for the related markers of brain neuroinflammation.
The brain tissues of the mice in the treatment group in Example 4 were examined by IHC technology for AD-related biochemical markers and compared with the diseased group.

Experiment [3] concerns colon tissue. Description: HE staining of colon tissue (colonic epithelium histopathology), wild-type mice. As to the method:
as §1, with “tests. According to the standard operating procedure of mouse brain anatomy, the mice in the control group, diseased group and treatment group in Example 3 were sacrificed, and their brain tissues and colon tissues were collected respectively and cryopreserved at −80° C. The colon tissues in the diseased group and control group in Example 4 were examined by HE staining technology for colonic epithelium histopathology. The colon tissues of the mice in the treatment group in Example 4 were examined by HE staining technology for colonic epithelium histopathology and compared with the diseased group.” for “tests.”

Experiment [4] concerns IBA-1 and GFAP positive cells. The experiment can be described thus: IHC of brain neuroinflammation markers, wild-type mice. How it is done:
as §1, §2, §3
The brain tissues of the mice in the treatment group in Example 4 were examined by IHC technology for the related markers of brain neuroinflammation and compared with the diseased group.

For experiment [5], the system named is wild-type mice C57BL/6J. Description: Morris water maze test, wild-type mice given OLDA / OLDA plus formula I. The conditions noted are these: for number of times of crossing the original platform location: platform removed. How it is done:
as §1

Experiment [6] has as its system IBA-1 and GFAP positive cells. Description: Brain neuroinflammation markers, 3×Tg mice injected with formula I. The note with it: 3×Tg mice injected with a composition containing formula I vs control group injected with normal saline. From the text:
(§4) 3×Tg mice (AD mice) in Example 2 were directly injected with a composition containing formula I (treatment group).

Experiment [7] concerns 3×Tg mice (AD mice). Description: Morris water maze test, 3×Tg mice (AD mice) injected with formula I. The note with it: 3×Tg mice injected with a composition containing formula I vs control group injected with normal saline.
Description: as §4

Experiment [8] relates to Aβ and p-Tau181. The experiment can be described thus: AD markers in hippocampus, 3×Tg mice injected with formula I. The note with it: 3×Tg mice injected with a composition containing formula I vs control group injected with normal saline.
Description: as §4

For experiment [9], the system named is 3×Tg mice (AD mice). The experiment can be described thus: Y maze test, 3×Tg mice (AD mice) injected with formula I. The conditions noted are these: 3×Tg mice injected with a composition containing formula I vs control group injected with normal saline.
Description: as §4

The test system of experiment [10] is colon tissue. The experiment can be described thus: Colon tissue histopathology, 3×Tg mice injected with formula I. The conditions noted are these: 3×Tg mice injected with a composition containing formula I vs control group injected with normal saline.
Description: as §4

The mark [11] stands for this setting: OLDA 0.5 mg/kg to 1.5 mg/kg intraperitoneal once a day for 8 weeks, diseased group vs control group (normal saline).
The mark [12] stands for this setting: OLDA diseased group vs control group.
Where [13] appears, read: treatment group (OLDA and formula I, each 0.5 mg/kg to 1.5 mg/kg, mixed solution, intraperitoneal once a day, 8 weeks) vs diseased group (OLDA).
[14] abbreviates: treatment group (OLDA and formula I) vs diseased group (OLDA).

As to `CCCCCCCC/C=C\CCCCCCCC(=O)NCCc1ccc(O)c(O)c1` [OLDA, N-oleoyl-dopamine, reference compound], in the experiment with wild-type mice C57BL/6J [1] (setting [11]), the spontaneous alternation rate result is “significantly reduced” and the “total number of arm entries” value was “significantly reduced”. Further, in the experiment with Aβ and p-Tau181 [2] (setting [12]), the “area of Aβ in the hippocampus” value is on record as “significantly increased” and the “area of p-Tau181 in the hippocampus” value is given as “significantly increased”. In the experiment on colon tissue [3] (setting [12]), the “inflammatory cells in the colon tissue” value was “infiltrated into muscularis mucosa” and the number of crypts result is listed as “decreased”. Moreover, in [4] (setting [12]), the “number of GFAP positive cells” value is on record as “increased” and the “number of IBA-1 positive cells” value is reported as “increased”. Further, the “time it took to find the platform (escape latency)” value in the experiment on wild-type mice C57BL/6J [5] (setting [11]) is “significantly prolonged”. Also, the “number of times of crossing the original platform location” value in the experiment with wild-type mice C57BL/6J [5] (OLDA 0.5 mg/kg to 1.5 mg/kg intraperitoneal once a day for 8 weeks, diseased group vs control group) was “significantly reduced”.

Consider `COc1cccc(NC(=O)/C=C/c2ccc(Cl)cc2)c1` [formula I], for which the “number of GFAP positive cells” value in experiment [6] and in [4] (setting [14]) was “decreased” throughout. For the same molecule, the “number of IBA-1 positive cells” value in experiment [6] and in experiment [4] (setting [14]) was “decreased” in each case. For the same molecule, the “time it took to find the platform (escape latency)” value in the experiment on 3×Tg mice (AD mice) [7] and in the experiment on wild-type mice C57BL/6J [5] (setting [13]) was “significantly reduced” each time. For the same molecule, the “number of times of crossing the original platform location” value in the experiment with 3×Tg mice (AD mice) [7] (platform removed) is “significantly reduced”; in the experiment with wild-type mice C57BL/6J [5] (setting [14]), “significantly increased”. Also, the spontaneous alternation rate entry with wild-type mice C57BL/6J [1] (setting [13]) and with 3×Tg mice (AD mice) [9] was “significantly increased” each time. The “total number of arm entries” value with wild-type mice C57BL/6J [1] (setting [13]) and in the experiment with 3×Tg mice (AD mice) [9] was “significantly increased” in each case. Moreover, the “area of Aβ in the hippocampus” value is on record as “significantly decreased” in the experiment with Aβ and p-Tau181 [2] (setting [14]); “decreased” in the experiment on Aβ and p-Tau181 [8]. The “area of p-Tau181 in the hippocampus” value in the experiment on Aβ and p-Tau181 [2] (setting [14]) was “significantly decreased”; in the experiment on Aβ and p-Tau181 [8], “decreased”. Further, the “inflammatory cells in the colon tissue” value in the experiment with colon tissue [3] (setting [14]) and in the experiment on colon tissue [10] was “infiltrated into muscularis mucosae” in each case. Also, the number of crypts result with colon tissue [3] (setting [14]) and with colon tissue [10] was “increased” in each case.
